Experimental data taken from patent publication EP1935986B1, “Luminogenic and fluorogenic compounds and methods to detect molecules or conditions” (priority 2005, dated 2006).

Tests used:
[1] = test system: thermostable luciferase (Luc 146-1H2); experiment: Thermostable luciferase reaction with luciferin derivatives: light readings; format: biochemical
Description: (§1) This stock was used to produce enzyme stock solution having of 200 µg/ml enzyme solution in 1 mg/ml BSA, 200 mM HEPES buffer, pH 8.0, 20 mM MgCl2.
(§2) Solutions were made using a 1 M DTT solution, pH adjusted to 8.0, a 20 mM Coenzyme A solution in water (both described in examples above), a 100 mM ATP solution and water to create the following solutions: Sol'A, 100 µM ATP; Sol'B, 100 µM ATP, 4 mM Coenzyme A; Sol'n C, 100 µM ATP, 400 mM DTT, and; Sol'n D, 100 µM ATP, 4 mM Coenzyme A and 400 mM DTT.
The following reactions were prepared (Table 47) Table 47
(§3) After assembly, the reactions were initiated by addition of 25 µl of the thermostable luciferase stock solution above and mixing the tube contents. A 50 µl sample was immediately removed and placed in a luminometer tube and the light read and the tube then replaced in a tube rack at room temperature. While the light reading was being taken, a 5 µl sample of the remaining reaction (which was kept at room temperature) was diluted into 495 µl of 50 mM BisTris, pH 6.5, 1 mg/ml BSA, 1 mM EDTA prechilled to 4°C and the tube mixed and placed on ice. The light produced by the samples in the luminometer tubes were re-read at 20, 40, 60, 90 and 120 minutes post enzyme addition. Additional 5 µl samples were taken and diluted as above at 60 and 120 minutes post enzyme addition. Once all these readings and samples were taken, 50 µl of the diluted samples was mixed with 50 µl of Steady Glo in luminometer tubes, the tubes incubated 10 minutes on ice then the light produced was read on a Turner TD 20/20 luminometer.

[2] = test system: thermostable luciferase (Luc 146-1H2); experiment: Residual thermostable luciferase activity after reaction with luciferin derivatives (Steady Glo); format: biochemical
Description: as §1, §2, §3

O=C(O)[C@H]1CSC(c2nc3ccc(OCc4ccccc4)cc3s2)=N1 [L'in-BE]
light readings from the reaction samples ([1]; substrate 6.25 (L'in-BE: 6.26), + Co A & DTT, Time 0 min): 436.9 | light readings from the reaction samples ([1]; substrate 6.25 (L'in-BE: 6.26), + Co A & DTT, Time 20 min): 80.41 | light readings from the reaction samples ([1]; substrate 6.25 (L'in-BE: 6.26), + Co A & DTT, Time 40 min): 38.47 | light readings from the reaction samples ([1]; substrate 6.25 (L'in-BE: 6.26), + Co A & DTT, Time 60 min): 22.83 | light readings from the reaction samples ([1]; substrate 6.25 (L'in-BE: 6.26), + Co A & DTT, Time 90 min): 16.08 | light readings from the reaction samples ([1]; substrate 6.25 (L'in-BE: 6.26), + Co A & DTT, Time 120 min): 12.01 | light readings from the reaction samples ([1]; substrate 6.25 (L'in-BE: 6.26), + Co A, Time 0 min): 2575 | light readings from the reaction samples ([1]; substrate 6.25 (L'in-BE: 6.26), + Co A, Time 20 min): 207.1 | light readings from the reaction samples ([1]; substrate 6.25 (L'in-BE: 6.26), + Co A, Time 40 min): 83.73 | light readings from the reaction samples ([1]; substrate 6.25 (L'in-BE: 6.26), + Co A, Time 60 min): 45.54 | light readings from the reaction samples ([1]; substrate 6.25 (L'in-BE: 6.26), + Co A, Time 90 min): 24 | light readings from the reaction samples ([1]; substrate 6.25 (L'in-BE: 6.26), + Co A, Time 120 min): 14.42 | light readings from the reaction samples ([1]; substrate 6.25 (L'in-BE: 6.26), + DTT, Time 0 min): 455.6 | light readings from the reaction samples ([1]; substrate 6.25 (L'in-BE: 6.26), + DTT, Time 20 min): 71.9 | light readings from the reaction samples ([1]; substrate 6.25 (L'in-BE: 6.26), + DTT, Time 40 min): 33.73 | light readings from the reaction samples ([1]; substrate 6.25 (L'in-BE: 6.26), + DTT, Time 60 min): 21.49 | light readings from the reaction samples ([1]; substrate 6.25 (L'in-BE: 6.26), + DTT, Time 90 min): 13.67 | light readings from the reaction samples ([1]; substrate 6.25 (L'in-BE: 6.26), + DTT, Time 120 min): 9.847 | light readings from the reaction samples ([1]; substrate 6.25 (L'in-BE: 6.26), Alone, Time 0 min): 785.5 | light readings from the reaction samples ([1]; substrate 6.25 (L'in-BE: 6.26), Alone, Time 20 min): 62.64 | light readings from the reaction samples ([1]; substrate 6.25 (L'in-BE: 6.26), Alone, Time 40 min): 22.11 | light readings from the reaction samples ([1]; substrate 6.25 (L'in-BE: 6.26), Alone, Time 60 min): 11.22 | light readings from the reaction samples ([1]; substrate 6.25 (L'in-BE: 6.26), Alone, Time 90 min): 5.189 | light readings from the reaction samples ([1]; substrate 6.25 (L'in-BE: 6.26), Alone, Time 120 min): 2.995 | light readings from the reaction samples ([1]; substrate 25, + Co A & DTT, Time 0 min): 402 | light readings from the reaction samples ([1]; substrate 25, + Co A & DTT, Time 20 min): 85.37 | light readings from the reaction samples ([1]; substrate 25, + Co A & DTT, Time 40 min): 45.87 | light readings from the reaction samples ([1]; substrate 25, + Co A & DTT, Time 60 min): 27.94 | light readings from the reaction samples ([1]; substrate 25, + Co A & DTT, Time 90 min): 18.94 | light readings from the reaction samples ([1]; substrate 25, + Co A & DTT, Time 120 min): 13.13 | light readings from the reaction samples ([1]; substrate 25, + Co A, Time 0 min): 972.4 | light readings from the reaction samples ([1]; substrate 25, + Co A, Time 20 min): 127.4 | light readings from the reaction samples ([1]; substrate 25, + Co A, Time 40 min): 58.9 | light readings from the reaction samples ([1]; substrate 25, + Co A, Time 60 min): 31.96 | light readings from the reaction samples ([1]; substrate 25, + Co A, Time 90 min): 17.54 | light readings from the reaction samples ([1]; substrate 25, + Co A, Time 120 min): 9.727 | light readings from the reaction samples ([1]; substrate 25, + DTT, Time 0 min): 448.6 | light readings from the reaction samples ([1]; substrate 25, + DTT, Time 20 min): 84.21 | light readings from the reaction samples ([1]; substrate 25, + DTT, Time 40 min): 43.77 | light readings from the reaction samples ([1]; substrate 25, + DTT, Time 60 min): 27.21 | light readings from the reaction samples ([1]; substrate 25, + DTT, Time 90 min): 18.48 | light readings from the reaction samples ([1]; substrate 25, + DTT, Time 120 min): 12.93 | light readings from the reaction samples ([1]; substrate 25, Alone, Time 0 min): 623.2 | light readings from the reaction samples ([1]; substrate 25, Alone, Time 20 min): 73.96 | light readings from the reaction samples ([1]; substrate 25, Alone, Time 40 min): 28.76 | light readings from the reaction samples ([1]; substrate 25, Alone, Time 60 min): 13.42 | light readings from the reaction samples ([1]; substrate 25, Alone, Time 90 min): 5.528 | light readings from the reaction samples ([1]; substrate 25, Alone, Time 120 min): 2.549 | light readings from the reaction samples ([1]; substrate 100, + Co A & DTT, Time 0 min): 140.4 | light readings from the reaction samples ([1]; substrate 100, + Co A & DTT, Time 20 min): 71.5 | light readings from the reaction samples ([1]; substrate 100, + Co A & DTT, Time 40 min): 45.66 | light readings from the reaction samples ([1]; substrate 100, + Co A & DTT, Time 60 min): 29.32 | light readings from the reaction samples ([1]; substrate 100, + Co A & DTT, Time 90 min): 19.92 | light readings from the reaction samples ([1]; substrate 100, + Co A & DTT, Time 120 min): 13.08 | light readings from the reaction samples ([1]; substrate 100, + Co A, Time 0 min): 191.9 | light readings from the reaction samples ([1]; substrate 100, + Co A, Time 20 min): 63.85 | light readings from the reaction samples ([1]; substrate 100, + Co A, Time 40 min): 29.28 | light readings from the reaction samples ([1]; substrate 100, + Co A, Time 60 min): 14.78 | light readings from the reaction samples ([1]; substrate 100, + Co A, Time 90 min): 6.652 | light readings from the reaction samples ([1]; substrate 100, + Co A, Time 120 min): 3.014 | light readings from the reaction samples ([1]; substrate 100, + DTT, Time 0 min): 148.7 | light readings from the reaction samples ([1]; substrate 100, + DTT, Time 20 min): 77.9 | light readings from the reaction samples ([1]; substrate 100, + DTT, Time 40 min): 48.39 | light readings from the reaction samples ([1]; substrate 100, + DTT, Time 60 min): 32.26 | light readings from the reaction samples ([1]; substrate 100, + DTT, Time 90 min): 21.71 | light readings from the reaction samples ([1]; substrate 100, + DTT, Time 120 min): 14.25 | light readings from the reaction samples ([1]; substrate 100, Alone, Time 0 min): 160 | light readings from the reaction samples ([1]; substrate 100, Alone, Time 20 min): 48.21 | light readings from the reaction samples ([1]; substrate 100, Alone, Time 40 min): 19.25 | light readings from the reaction samples ([1]; substrate 100, Alone, Time 60 min): 8.305 | light readings from the reaction samples ([1]; substrate 100, Alone, Time 90 min): 2.843 | light readings from the reaction samples ([1]; substrate 100, Alone, Time 120 min): 1.311 | light values obtained upon addition of the diluted reaction samples into Steady Glo reagent ([2]; Substrate 6.25, + Co A & DTT, Time Sample Taken 0 min): 1943 | light values obtained upon addition of the diluted reaction samples into Steady Glo reagent ([2]; Substrate 6.25, + Co A & DTT, Time Sample Taken 60 min): 1235 | light values obtained upon addition of the diluted reaction samples into Steady Glo reagent ([2]; Substrate 6.25, + Co A & DTT, Time Sample Taken 120 min): 1163 | light values obtained upon addition of the diluted reaction samples into Steady Glo reagent ([2]; Substrate 6.25, + Co A, Time Sample Taken 0 min): 1841 | light values obtained upon addition of the diluted reaction samples into Steady Glo reagent ([2]; Substrate 6.25, + Co A, Time Sample Taken 60 min): 518.6 | light values obtained upon addition of the diluted reaction samples into Steady Glo reagent ([2]; Substrate 6.25, + Co A, Time Sample Taken 120 min): 349.1 | light values obtained upon addition of the diluted reaction samples into Steady Glo reagent ([2]; Substrate 6.25, + DTT, Time Sample Taken 0 min): 1860 | light values obtained upon addition of the diluted reaction samples into Steady Glo reagent ([2]; Substrate 6.25, + DTT, Time Sample Taken 60 min): 1173 | light values obtained upon addition of the diluted reaction samples into Steady Glo reagent ([2]; Substrate 6.25, + DTT, Time Sample Taken 120 min): 1067 | light values obtained upon addition of the diluted reaction samples into Steady Glo reagent ([2]; Substrate 6.25, Alone, Time Sample Taken 0 min): 2057 | light values obtained upon addition of the diluted reaction samples into Steady Glo reagent ([2]; Substrate 6.25, Alone, Time Sample Taken 60 min): 406.6 | light values obtained upon addition of the diluted reaction samples into Steady Glo reagent ([2]; Substrate 6.25, Alone, Time Sample Taken 120 min): 267.7 | light values obtained upon addition of the diluted reaction samples into Steady Glo reagent ([2]; Substrate 25, + Co A & DTT, Time Sample Taken 0 min): 1925 | light values obtained upon addition of the diluted reaction samples into Steady Glo reagent ([2]; Substrate 25, + Co A & DTT, Time Sample Taken 60 min): 1102 | light values obtained upon addition of the diluted reaction samples into Steady Glo reagent ([2]; Substrate 25, + Co A & DTT, Time Sample Taken 120 min): 836.3 | light values obtained upon addition of the diluted reaction samples into Steady Glo reagent ([2]; Substrate 25, + Co A, Time Sample Taken 0 min): 1610 | light values obtained upon addition of the diluted reaction samples into Steady Glo reagent ([2]; Substrate 25, + Co A, Time Sample Taken 60 min): 277.8 | light values obtained upon addition of the diluted reaction samples into Steady Glo reagent ([2]; Substrate 25, + Co A, Time Sample Taken 120 min): 143.2 | light values obtained upon addition of the diluted reaction samples into Steady Glo reagent ([2]; Substrate 25, + DTT, Time Sample Taken 0 min): 1675 | light values obtained upon addition of the diluted reaction samples into Steady Glo reagent ([2]; Substrate 25, + DTT, Time Sample Taken 60 min): 910.2 | light values obtained upon addition of the diluted reaction samples into Steady Glo reagent ([2]; Substrate 25, + DTT, Time Sample Taken 120 min): 738.9 | light values obtained upon addition of the diluted reaction samples into Steady Glo reagent ([2]; Substrate 25, Alone, Time Sample Taken 0 min): 1309 | light values obtained upon addition of the diluted reaction samples into Steady Glo reagent ([2]; Substrate 25, Alone, Time Sample Taken 60 min): 157.1 | light values obtained upon addition of the diluted reaction samples into Steady Glo reagent ([2]; Substrate 25, Alone, Time Sample Taken 120 min): 72.57 | light values obtained upon addition of the diluted reaction samples into Steady Glo reagent ([2]; Substrate 100, + Co A & DTT, Time Sample Taken 0 min): 1780 | light values obtained upon addition of the diluted reaction samples into Steady Glo reagent ([2]; Substrate 100, + Co A & DTT, Time Sample Taken 60 min): 1016 | light values obtained upon addition of the diluted reaction samples into Steady Glo reagent ([2]; Substrate 100, + Co A & DTT, Time Sample Taken 120 min): 778.7 | light values obtained upon addition of the diluted reaction samples into Steady Glo reagent ([2]; Substrate 100, + Co A, Time Sample Taken 0 min): 1486 | light values obtained upon addition of the diluted reaction samples into Steady Glo reagent ([2]; Substrate 100, + Co A, Time Sample Taken 60 min): 242.2 | light values obtained upon addition of the diluted reaction samples into Steady Glo reagent ([2]; Substrate 100, + Co A, Time Sample Taken 120 min): 82.03 | light values obtained upon addition of the diluted reaction samples into Steady Glo reagent ([2]; Substrate 100, + DTT, Time Sample Taken 0 min): 1762 | light values obtained upon addition of the diluted reaction samples into Steady Glo reagent ([2]; Substrate 100, + DTT, Time Sample Taken 60 min): 952.1 | light values obtained upon addition of the diluted reaction samples into Steady Glo reagent ([2]; Substrate 100, + DTT, Time Sample Taken 120 min): 691 | light values obtained upon addition of the diluted reaction samples into Steady Glo reagent ([2]; Substrate 100, Alone, Time Sample Taken 0 min): 1245 | light values obtained upon addition of the diluted reaction samples into Steady Glo reagent ([2]; Substrate 100, Alone, Time Sample Taken 60 min): 156.4 | light values obtained upon addition of the diluted reaction samples into Steady Glo reagent ([2]; Substrate 100, Alone, Time Sample Taken 120 min): 61.75
